How the values were obtained:
Assay type in all cases: physicochemical
[1] = Dissolution profile of tablets in pH6.8 PBS+1% Tween 80; details: tablet 61 mg, paddle 75 rpm, 37° C.
Protocol: The cumulative dissolution was measured at different time in pH6.8 PBS+1% Tween 80 and pH6.8 PBS+3% Tween 80. The dissolution results are presented in Table 24 (FIG. 23) and Table 25 (FIG. 24).
The cumulative dissolution was measured at different time in pH6.8 PBS+1% Tween 80.

[2] = Adhesiveness (material sticking to the punch); details: 30 mg, φ8 mm round tooling, 10 KN held for 30 s
Protocol: The punch was weighed and amount of material sticking to the punch was calculated. The compression was repeated twice and the cumulative amount, maximum amount and average amount of material sticking to the punch during the compression were recorded.

[3] = Stability of drug substance on storage (XRPD, HPLC purity); details: for chemical purity during storage: drug substance
Description: Crystalline form and chemical impurity were checked by XRPD and HPLC, respectively.
Crystalline form and purity were checked by XRPD and HPLC, respectively.

[4] = Hygroscopicity by dynamic vapor sorption (DVS); details: 80% RH, 25° C., DVS
Protocol: Dynamic Vapor Sorption (DVS) is measured via a SMS (Surface Measurement Systems Ltd.) intrinsic DVS instrument. Its control software is DVS-Intrinsic control software. Typical parameters for DVS tests are as follows:
Gas and flow rate: N2, 200 mL/min
RH range: 0% RH to 95% RH
The weight gains at each relative humidity were recorded in a cycle of 0-95%-0 RH. The XRPD patterns were collected before and after the DVS test and depicted in FIG. 11.
Description and definition of hygroscopicity (general notice 9103 drug hygroscopicity test guidelines in 2015 edition of Chinese Pharmacopoeia, test at 25° C.+/−1° C., 80% RH. The definition of hygroscopicity in the 9th European Pharmacopoeia 5.11 is in consistent with the Chinese Pharmacopoeia.). • deliquescent: sufficient water is absorbed to form a solution. • very hygroscopic: increase in mass is equal to or greater than 15 percent. • hygroscopic: increase in mass is less than 15 percent and equal to or greater than 2 percent. • slightly hygroscopic: increase in mass is less than 2 percent and equal to or greater than 0.2 percent. • non hygroscopic or almost non hygroscopic: Increase in mass is less than 0.2%.
The weight gains at each relative humidity were recorded in a cycle of 0-95%-0RH. The XRPD patterns were collected before and after the DVS test and depicted in FIG. 22. […] Form CSVI is slightly hygroscopic.
The weight gains at each relative humidity were recorded in a cycle of 0-95%-0RH. The XRPD patterns were collected before and after the DVS test and depicted in FIG. 31.

[5] = Compressibility (manual tablet press, tensile strength); details: 80 mg, φ6 mm round tooling, 10 KN
Protocol: An ENERPAC manual tablet press was used for tableting. […] Diameter (D) and thickness (L) were tested with a caliper. Hardness (H) was tested with an intelligent tablet hardness tester. Tensile strength of the powder was calculated with the following formula: T=2H/πDL*9.8. Under a certain force, the greater the tensile strength, the better the compressibility.
Diameter (D) and thickness (L) were tested with a caliper. Hardness (H) was tested with an intelligent tablet hardness tester. Tensile strength of the powder was calculated with the following formula: T=2H/πDL*9.8. Under a certain force, the greater the tensile strength, the better the compressibility.

[6] = Stability of Form CSVII drug product on storage; details: 30° C./60% RH
[7] = 40° C./75% RH, Sealed, 3 months
[8] = 60° C./75% RH, Sealed, 2 months

With `O=C(O)CCCCC(=O)O.O=C(O)c1ccc2nc(-c3cc(Cl)cc(Cl)c3)oc2c1.O=C(O)c1ccc2nc(-c3cc(Cl)cc(Cl)c3)oc2c1` [Form CSVII] the “Cumulative drug release in pH 6.8 PBS + 1% Tween 80 (%)” value (from here on “Cumulative drug release … (%)”) ([1]; 0 min) was 0.0%, the “Cumulative drug release … (%)” value ([1]; 5 min) was 9.3% and the “Cumulative drug release … (%)” value ([1]; 10 min) was 15.2%. The “Cumulative drug release … (%)” value ([1]; 15 min) was 19.7%, the “Cumulative drug release … (%)” value ([1]; 20 min) was 23.5% and the “Cumulative drug release … (%)” value ([1]; 30 min) was 29.8%. The “Cumulative drug release … (%)” value ([1]; 45 min) was 37.4%, the “Cumulative drug release … (%)” value ([1]; 60 min) was 43.7% and the “Cumulative drug release … (%)” value ([1]; 90 min) was 52.8%. The “Cumulative drug release … (%)” value ([1]; 120 min) was 60.1%, the “Cumulative drug release … (%)” value ([1]; 150 min) was 68.3% and the “Average amount (mg) of material sticking to the punch” value [2] was 0.200 mg. The Purity ([3]; 25° C./60% RH, Open, 3 months) was 99.92%, the “Solid Form” value ([3]; 25° C./60% RH, Open, 3 months) was “Form CSVII” and the Purity ([3]; 40° C./75% RH, Open, 3 months) was 99.92%. For the same compound, the “Solid Form” value ([3]; 40° C./75% RH, Open, 3 months) was “Form CSVII”, the Purity [3, 7] was 99.92% and the “Solid Form” value [3, 7] was “Form CSVII”. The Purity [3, 8] was 99.93%, the “Solid Form” value [3, 8] was “Form CSVII” and the Purity ([3]; Initial) was 99.93%. The “Solid Form” value ([3]; Initial) was “Form CSVII”, the “chemical purity during storage” value ([3]; 25° C./60% RH) was “above 99.9%” and the “chemical purity during storage” value ([3]; 40° C./75% RH and 60° C./75% RH) was “above 99.9%”. The Weight gain [4] was 0.04%, the Hardness ([5]; 24 hours recovery) was 7.45 kgf and the Tensile strength ([5]; T=2H/πDL*9.8) was 4.02 MPa. For the same compound, the “time for which crystalline state of drug product doesn't change” value [6] was “at least three months”.
